Among the data in a melting point compilation (Tetko et al.; mined from patent text by program, amines drawn as free bases though some values may be those of a salt) are melting point values, retold here.

One may read the melting point as the temperature of the solid-liquid transition.

The structures appear in SMILES notation. Bounds are passed on as bounds.

Regarding `COc1ccc(CN2C(=O)CC[C@@]3(C)c4ccc(Cl)cc4CC[C@H]23)cc1` (relative stereo), the melting point was 55 to 60 °C.

In the case of `COc1cccc(CC(=O)O)c1OCCCc1cn(-c2ccc(C(C)=O)cn2)nc1C(C)C`, the melting point lay in the range of 148 to 149 °C.

`Clc1c(NC2=NCCN2)ccc2nsnc12` gave a melting point of 232 to 235 °C.

Turning to `CC(=NOCCC(=O)O)c1ccc(Cl)cc1`, the melting point fell in the range of 80 to 83 °C.

`Cc1cnc2c(c1)CCCC2C(N)=O` (stereo unspecified): the melting point stood at 104 °C.

`CCN(CCOc1cccnc1F)CCN1C(=O)c2ccccc2C1=O` returned a melting point of 58 to 60 °C.

`CC(C)C(NC(=O)Cn1cccc(NC(=O)Oc2ccc(Cl)cc2)c1=O)C(=O)C(F)(F)F` (stereo unspecified): the melting point lay in the range of 137 to 139 °C.

As for `CCCOc1ccccc1C1C(C(=O)OCC)=C(CCC)Nc2n[nH]cc21` (stereo unspecified), the melting point was found to be 205 °C.

Regarding `O=S1(=O)OCC(COC(C(F)(F)F)(C(F)(F)F)C(F)(F)F)(COC(C(F)(F)F)(C(F)(F)F)C(F)(F)F)CO1`, the melting point fell in the range of 90 to 91 °C.

Regarding `CCCc1c(OCC(O)CSc2ccc(CC(=O)OC)c(Cl)c2Cl)ccc(C(C)=O)c1O` (stereo unspecified), the melting point lay in the range of 85 to 88 °C.

Take `Nc1n[nH]c2cc(Br)ccc12`: the melting point was 222 to 225 °C.

In the case of `C=C=CP1(=O)OCC(C)(C)CO1`, the melting point is 128 to 133 °C.

For the compound `COc1ccc(CC(=O)N[C@@H](C)CO)cc1OC`, the melting point was in the range of 122 to 125 °C.

As for `Nc1ccc(Nc2c(NCc3ccco3)cc(C(=O)O)cc2S(=O)(=O)Nc2ccccc2N)cc1`, the melting point was determined as 182 °C.

On to `CC(=O)NCCc1cn(S(=O)(=O)c2ccc(C)cc2)c2ccc(OCCN3CCCCC3)cc12`, for which the melting point was 65 to 66 °C.

Turning to `COc1cc(-c2cn3ccccc3n2)c(F)cc1Cl`, the melting point lay in the range of 139 to 141 °C.

`Cc1nn(C)c(C)c1C(=O)Nc1ccc(C(C(F)(F)F)C(F)(F)F)c(CC(C)C)c1` displayed a melting point of 148 to 151 °C.

Take `CCOCCCOc1ccc(-c2ccc3c(c2)C=C(C(=O)OC)CCN3)cc1`: the melting point fell in the range of 99 to 102 °C.

Consider `N#CC1C(=O)NC(=O)C(C#N)C12CCN(Cc1ccccc1)CC2` (stereo unspecified), for which the melting point lay in the range of 179 to 181 °C.

Compound `N#Cc1c(Br)[nH]c(-c2ccccc2)c1C#N` gave a melting point of 225 to 258 °C.

With `Cc1csc2nc(C(=O)NCc3cccc(CNC(=O)c4nc[nH]n4)c3)[nH]c(=O)c12`, the melting point lay in the range of 290 to 291 °C.

The compound `Cc1ccc(S(=O)(=O)OC2CC(=O)N(Cc3ccccc3)C2)cc1` (stereo unspecified) registered a melting point of 83 to 84 °C.

Regarding `CC(C)(C)c1cc(CCc2cc(C(C)(C)C)c(O)c(C(C)(C)C)c2)cc(C(C)(C)C)c1O`, the melting point was in the range of 170 to 171 °C.

`COc1ccc2nc(-c3ccccc3)cc(CCNC(=O)C(F)(F)F)c2c1` gave a melting point of 122 to 124 °C.

For the compound `O=C(O)COc1cc(Cl)ccc1C(=O)NCCN1CCN(Cc2ccc(Cl)c(Cl)c2)CC1`, the melting point lay in the range of 118 to 120 °C.

Compound `O=C(NC(=O)c1cc(Cl)cc(Cl)c1)NC1CN2CCC1CC2` (stereo unspecified) gave a melting point of 253 to 254 °C.

`CNc1cccc([N+](=O)[O-])c1C#N` displayed a melting point of 203 to 206 °C.

For `ON=C(c1ccccc1)C(O)(c1ccccc1)c1ccccc1`, the melting point fell in the range of 150 to 152 °C.

`CCCn1cc(C(=O)NCc2ccc(Cl)cc2)c(=O)c2cc(CN(C)C[C@@H](O)c3ccccc3)sc21` yielded a melting point of 45 to 48 °C.

`CC(C)C(=O)O[C@H]1[C@H](C)OC(=O)[C@@H](NC(=O)OC(C)(C)C)COC(=O)[C@@H]1CI` returned a melting point of 168 to 171 °C.

Consider `O=S(=O)(c1ccccc1)n1ccc2c(CO)cccc21`, for which the melting point was 89 to 91 °C.

In turn, `O=S1(=O)CS(=O)(=O)OCO1` showed a melting point of 146 °C.

`CCOC(=O)CCc1nc2cccnc2n(-c2cccc(NC(=O)Nc3ccccc3OC)c2)c1=O` displayed a melting point of 175 °C.

The compound `CC1=CC(COC(c2ccccc2)(c2ccccc2)c2ccccc2)OC1O` (stereo unspecified) gave a melting point of 100 to 102 °C.

Consider `Cc1cccc(NC(=O)NCC(=O)N(CC(=O)OC(C)(C)C)c2cccc(Cl)c2)c1`, for which the melting point was 110 °C.

`COc1cc(C)c(C(=O)c2c(Cl)cccc2Cl)cc1Oc1ccccc1` had a melting point of 89 °C.

On to `N#Cc1ccc2ccc(=O)n(CCN3CCC(N)CC3)c2c1`, for which the melting point is 138 °C.

For the compound `O=C1c2ccccc2-n2cnc(Cl)c2[C@@H]2CCN12`, the melting point was in the range of 210 to 214 °C.

As for `COc1cc(N2CCC(N3CCCOCC3)CC2)ccc1Nc1ncc2ccc(-c3ccccc3OC)n2n1`, the melting point fell in the range of 75 to 82 °C.

`COc1ccc(-c2c(CC(=O)O)c(-c3ccccc3)nn2-c2ccccc2)cc1` showed a melting point of 160 to 163 °C.

Take `CS(=O)(=O)c1ccc(-n2nc(CNC(=O)Nc3ccc(OC(F)(F)F)cc3)cc2-c2ccccc2)cc1`: the melting point fell in the range of 153 to 156 °C.

In turn, `CCCc1cn(CC(=O)O)nc1OCCCc1cn(-c2ccc(C(F)(F)F)cn2)nc1OCC` registered a melting point of 134 to 135 °C.

`CNC(=O)n1cc(F)cnc1=O`: the melting point worked out at 166 °C.

For `Cc1ccc(-c2c(CO)n(CC(C)C)c(=O)c3ccc(OCc4ccccc4)cc23)cc1`, the melting point fell in the range of 74 to 76 °C.

`COCC(C)(COC)C(=O)O[C@H]1C[C@H](O)C=C2C=C[C@H](C)[C@H](CC[C@@H]3C[C@@H](O)CC(=O)O3)[C@H]21`: the melting point is 122 to 123 °C.

`Cc1c(-c2ccccc2)c(N2CC[C@H](N(C)C)C2)c2oc(N3CCOCC3)nc2c1C#N` displayed a melting point of 215 to 217 °C.

As to `CCCCCCCNC(=O)Oc1ccc2ncccc2c1`, the melting point turned out to be 78 °C.

`Cc1cc(C(=O)c2ccccc2)c(C)n1C(C)C(=O)Nc1ccccc1` (stereo unspecified) registered a melting point of 165 to 166 °C.

Compound `O=C(O)CCc1ccc(OCc2cccc(-c3cncnc3)c2)cc1` came in with a melting point of 166 to 167 °C.

Consider `OC(CCCCBr)(c1ccc(F)cc1)c1ccc(F)cc1`, for which the melting point amounted to 55 °C.

With `C[C@H]1C(=O)Nc2ccc(Cl)cc2N1C(=O)Cl`, the melting point was in the range of 194 to 195 °C.

The compound `CC1CN(C2=Nc3ccccc3Oc3ccccc32)C(C)CN1` (stereo unspecified) showed a melting point of 46 to 48 °C.

`OC1CSC(Oc2cc(-c3ccccn3)ccc2Cl)C(O)C1O` (stereo unspecified) showed a melting point of 108 °C.

Regarding `Cc1ccc(-c2nc(-c3ccc(C)cc3C)nc(-c3ccc(OCCCCCCO)cc3O)n2)c(C)c1`, the melting point was in the range of 117 to 118 °C.

`CCCCN(C=O)C1CC(C)(C)N(O)C(C)(C)C1` gave a melting point of 77 to 79 °C.

For the compound `Cc1nnc(SCc2ccc(C(=O)N(C)C)cc2)s1`, the melting point fell in the range of 75 to 80 °C.

Turning to `CC(c1ccncc1Cl)C(O)(Cn1cncn1)c1ccc(F)cc1F` (stereo unspecified), the melting point lay in the range of 182 to 184 °C.

Compound `CN(C)C=C(C(=O)c1ccc(Cl)cc1)c1ccccc1[N+](=O)[O-]` showed a melting point of 142 to 148 °C.

For the compound `NCC1Cc2cc(-c3ccc(Cl)cc3)cc(F)c2O1` (stereo unspecified), the melting point was above 250 °C.

Consider `CC(c1oc2ccccc2c(=O)c1-c1cccc(F)c1)n1nc(-c2cncnc2)c2c(N)ncnc21` (stereo unspecified), for which the melting point was 207 to 211 °C.

The compound `CNC(=O)c1cccc(NC(=O)Cc2cccc(O)c2)c1` registered a melting point of 163 °C.

The compound `O=C1c2ccc3cccnc3c2N=CC1S(=O)(=O)CC(F)(F)F` (stereo unspecified) displayed a melting point of 272 to 274 °C.

As for `CC(C)C1(c2ccccc2OCCCCBr)C(=O)N(C)c2ccccc21` (stereo unspecified), the melting point lay in the range of 98 to 100 °C.

Compound `CSc1cc2ccc(-c3ccccc3)cc2cc1OS(=O)(=O)C(F)(F)F` came in with a melting point of 87.8 to 88.7 °C.

As to `O=C(NCC(=O)N(CC(=O)N1CCCCC1c1ccccc1)c1ccccc1)Nc1cccc(CO)c1` (racemic), the melting point stood at 104 °C.

With `Nc1ccc(C2CCNC2)c(F)c1` (stereo unspecified), the melting point was in the range of 108 to 109 °C.

`Cc1c(C(=O)Nc2ccc(N3CCC(N(C)CCO)CC3)c(C#N)c2)cnn1-c1ccc(Cl)cc1` came in with a melting point of 186 °C.

Regarding `CCC(C#N)c1nsc2ccc(-n3c(=O)cc(C(F)(F)F)n(C)c3=O)cc12` (stereo unspecified), the melting point is 107 to 109 °C.

The compound `COC(=O)Cc1ccccc1NC(=S)NCN` came in with a melting point of 149 to 150 °C.

`COc1ccc(N2CCN(c3c(C)c(C)c4c(c3C)C(c3ccc(OC(F)(F)F)cc3)C(C)(C)O4)CC2)cc1` (stereo unspecified) returned a melting point of 147 to 148 °C.

Compound `O=C(O)CCCc1ccc(F)cc1F` registered a melting point of 45 to 47 °C.

`CC(C)(C)OC(=O)N=C(N)N(CCc1ccc(OCCC2Oc3ccccc3N(Cc3cccc(Cl)c3)C2=O)cc1)C(=O)OC(C)(C)C` (stereo unspecified) yielded a melting point of 74 to 78 °C.

`O=C(c1sc2ccc(C(F)(F)F)cc2c1O)N(C=Cc1ccccc1)C=Cc1ccccc1` yielded a melting point of 165 to 167 °C.

`COc1ccc(-c2cn3c(n2)-c2ccccc2CC3)cc1` yielded a melting point of 179 to 181 °C.

Compound `CC(=O)OCCc1ccc(C2=NNC(=O)CC2)cc1` displayed a melting point of 94 to 96 °C.

Consider `O=C1c2ccccc2C(=O)N1c1cc(C(Cl)(Cl)Cl)ccn1`, for which the melting point stood at 143 °C.

As for `COc1nc(NC(=O)Nc2ccccc2OC)nc(N(CCC(=O)O)Cc2cccc(C)c2)n1`, the melting point lay in the range of 160 to 162 °C.

With `COCOc1ccc(C=O)c(Oc2ncc(C(F)(F)F)cc2Cl)c1`, the melting point lay within 93.9 to 94 °C.

`CSc1ncccc1NC(=O)CCCCCSc1nc2ccccc2s1`: the melting point lay within 118 to 119 °C.

For the compound `CC(C)(F)C1COCc2nc3c(N)nc4c(c3n21)CCCC4` (stereo unspecified), the melting point lay within 196 to 197 °C.

The compound `CCCc1c(OCCCOc2ccc3c(=O)cc(C(=O)OC)oc3c2CCC)ccc(C(C)=O)c1O` came in with a melting point of 113 to 115 °C.

For the compound `c1cc(C2=NOC(C3CC3)(N3CCCC3)C2)ccn1` (stereo unspecified), the melting point was 80 to 85 °C.

In turn, `CC(=O)C1(COC(=O)Oc2ccccc2)CC2C=CC1CC2` (stereo unspecified) gave a melting point of 58 to 60 °C.

`Nc1nc2cccnc2c2c1nc(O)n2CC1CCOCC1` displayed a melting point of 250 to 260 °C.

In turn, `CC(=O)Oc1cccc2c1C(=O)c1c(OC(C)=O)cc(C(=O)NOCc3ccccc3)cc1C2=O` showed a melting point of 192 to 194 °C.

As for `O=C(Nc1ccccc1C(F)(F)F)OCc1nccn1-c1cc2cc(C(=O)O)c(=O)[nH]c2cc1Cl`, the melting point is above 300 °C.
